This is an account of results in ChEMBL document CHEMBL3046807, “Synthesis and anti-inflammatory evaluation of some new 3,6-disubstituted-1,2,4-triazolo-[3,4-b]-1,3,4-thiadiazoles bearing pyrazole moiety” (2012).

A word on the inhibition in vivo: it is the share of the control response that was lost under treatment.

Assay [1] deals with Rattus norvegicus. Description: Anti-inflammatory activity in Rattus norvegicus Wistar (rat) assessed as inhibition of carrageenan-induced paw edema at 20 mg/kg, ip administered 30 min post carrageenan-challenge measured after 2.5 hr relative to control. As to conditions: route intraperitoneal. Format: functional. In general terms: In the carrageenan paw model, swelling and tenderness develop within hours.

Assay [2] deals with Rattus norvegicus. As to the kind of experiment: Anti-inflammatory activity in Rattus norvegicus Wistar (rat) assessed as inhibition of carrageenan-induced paw edema at 10 mg/kg, ip administered 30 min post carrageenan-challenge measured after 2.5 hr relative to control. As to conditions: route intraperitoneal. It is filed as functional.

On to `CCc1nnc2sc(-c3c[nH]nc3-c3ccccc3)nn12`, for which the inhibition in vivo at 20 mg/kg in the assay with Rattus norvegicus [1] is 29.4%.

Take `CCc1nnc2sc(-c3c[nH]nc3-c3ccc(F)cc3)nn12`: the inhibition in vivo at 20 mg/kg in the assay with Rattus norvegicus [1] was 23.5%.

On to `CCc1nnc2sc(-c3c[nH]nc3-c3ccc(OC)cc3)nn12`, for which the inhibition in vivo at 20 mg/kg with Rattus norvegicus [1] amounted to 17.6%.

On to `CCc1nnc2sc(-c3c[nH]nc3-c3ccc(Cl)cc3)nn12`, for which, in the assay on Rattus norvegicus [1], the inhibition in vivo at 20 mg/kg stood at 56.9%.

For `CCCc1nnc2sc(-c3c[nH]nc3-c3ccccc3)nn12`, in the assay with Rattus norvegicus [1], the inhibition in vivo at 20 mg/kg is 56.9%.

For `CCCc1nnc2sc(-c3c[nH]nc3-c3ccc(F)cc3)nn12`, the inhibition in vivo at 20 mg/kg in the assay on Rattus norvegicus [1] came to 12%.

As to `CCCc1nnc2sc(-c3c[nH]nc3-c3ccc(OC)cc3)nn12`, in the assay on Rattus norvegicus [1], the inhibition in vivo at 20 mg/kg was 13.5%.

For the molecule `CCCc1nnc2sc(-c3c[nH]nc3-c3ccc(Cl)cc3)nn12`, the inhibition in vivo at 20 mg/kg in the assay on Rattus norvegicus [1] was found to be 64.7%.

For `CCc1nnc2sc(-c3c[nH]nc3-c3ccc(Cl)cc3Cl)nn12`, the inhibition in vivo at 20 mg/kg with Rattus norvegicus [1] is 25.5%.

Consider `CCCc1nnc2sc(-c3c[nH]nc3-c3ccc(Cl)cc3Cl)nn12`, for which the inhibition in vivo at 20 mg/kg in the assay on Rattus norvegicus [1] is 23.5%.

Turning to `O=C(O)Cc1ccccc1Nc1c(Cl)cccc1Cl` [DICLOFENAC SODIUM], the inhibition in vivo at 10 mg/kg in the assay with Rattus norvegicus [2] worked out at 80.4%.
